Test results: ChEMBL document CHEMBL1201862, “PubChem BioAssay data set” (2004)
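Method: 48-hour compound exposure of cells in 96-well plates, five concentrations, linear interpolation of endpoints. GI50 is the concentration that inhibits growth by half.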 Calls of active or inactive are those of the source. Rule as the data show it: active = GI50 up to about 1.1 µM and inactive = higher.

Experiments:
Assay in all cases: growth of human tumour cells (NCI), 48 h
Malme-3M = system: Malme-3M
HCT-15 = system: HCT-15
HL-60 = system: HL-60
ACHN = system: ACHN
MOLT-4 = system: MOLT-4
RPMI-8226 = system: RPMI-8226
RXF 393 = system: RXF 393
SNB-75 = system: SNB-75
SW-620 = system: SW-620
SK-MEL-28 = system: SK-MEL-28
A549 = system: A549
PC-3 = system: PC-3
UACC-62 = system: UACC-62
MDA-MB-231 = system: MDA-MB-231
SF-268 = system: SF-268
HT-29 = system: HT-29
U-251 = system: U-251
NCI-H522 = system: NCI-H522
786-0 = system: 786-0
K562 = system: K562
DU-145 = system: DU-145
MCF7 = system: MCF7
HOP-62 = system: HOP-62
BT-549 = system: BT-549
NCI/ADR-RES = system: NCI/ADR-RES
SF-295 = system: SF-295
T47D = system: T47D
TK-10 = system: TK-10
LOX IMVI = system: LOX IMVI
OVCAR-3 = system: OVCAR-3
NCI-H226 = system: NCI-H226
COLO 205 = system: COLO 205
CAKI-1 = system: CAKI-1
OVCAR-4 = system: OVCAR-4
SK-OV-3 = system: SK-OV-3
OVCAR-5 = system: OVCAR-5
KM12 = system: KM12
HOP-92 = system: HOP-92
A498 = system: A498
UO-31 = system: UO-31
IGROV-1 = system: IGROV-1
M14 = system: M14
SR = system: SR
HCT-116 = system: HCT-116
SF-539 = system: SF-539
NCI-H460 = system: NCI-H460
SK-MEL-5 = system: SK-MEL-5
NCI-H23 = system: NCI-H23
HCC 2998 = system: HCC 2998
SNB-19 = system: SNB-19
SK-MEL-2 = system: SK-MEL-2
MDA-MB-435 = system: MDA-MB-435
EKVX = system: EKVX

**Q.** What does the source list for `O=C(c1ccc(/N=C/c2ccccc2O)cc1)c1ccc(/N=C/c2ccccc2O)cc1`?
**A.** GI50 (Malme-3M): > 100 µM (inactive); GI50 (HCT-15): > 100 µM; GI50 (HL-60): > 100 µM (inactive); GI50 (ACHN): > 100 µM (inactive); GI50 (MOLT-4): > 100 µM (inactive); GI50 (RPMI-8226): > 100 µM (inactive); GI50 (RXF 393): > 100 µM (inactive); GI50 (SNB-75): > 100 µM (inactive); GI50 (SW-620): > 100 µM (inactive); GI50 (SK-MEL-28): > 100 µM (inactive); GI50 (A549): > 100 µM (inactive); GI50 (PC-3): > 100 µM (inactive); GI50 (UACC-62): > 100 µM (inactive); GI50 (MDA-MB-231): > 100 µM (inactive); GI50 (SF-268): > 100 µM (inactive); GI50 (HT-29): > 100 µM (inactive); GI50 (U-251): > 100 µM (inactive); GI50 (NCI-H522): > 100 µM (inactive); GI50 (786-0): > 100 µM (inactive); GI50 (K562): > 100 µM (inactive); GI50 (DU-145): > 100 µM (inactive); GI50 (MCF7): > 100 µM (inactive); GI50 (HOP-62): > 100 µM (inactive); GI50 (BT-549): > 100 µM (inactive); GI50 (NCI/ADR-RES): > 100 µM (inactive); GI50 (SF-295): > 100 µM (inactive); GI50 (T47D): 62.8 µM (inactive); GI50 (TK-10): > 100 µM (inactive); GI50 (LOX IMVI): > 100 µM (inactive); GI50 (OVCAR-3): > 100 µM (inactive); GI50 (NCI-H226): > 100 µM (inactive); GI50 (COLO 205): 30.1 µM (inactive); GI50 (CAKI-1): > 100 µM (inactive); GI50 (OVCAR-4): > 100 µM (inactive); GI50 (SK-OV-3): > 100 µM (inactive); GI50 (OVCAR-5): > 100 µM (inactive); GI50 (KM12): > 100 µM (inactive); GI50 (HOP-92): > 100 µM (inactive); GI50 (A498): > 100 µM (inactive); GI50 (UO-31): > 100 µM (inactive); GI50 (IGROV-1): > 100 µM (inactive); GI50 (M14): > 100 µM (inactive); GI50 (SR): > 100 µM (inactive); GI50 (HCT-116): > 100 µM (inactive); GI50 (SF-539): > 100 µM (inactive); GI50 (NCI-H460): > 100 µM (inactive); GI50 (SK-MEL-5): 6.11 µM (inactive); GI50 (NCI-H23): > 100 µM (inactive); GI50 (HCC 2998): > 100 µM (inactive); GI50 (SNB-19): > 100 µM (inactive); GI50 (SK-MEL-2): > 100 µM (inactive); GI50 (MDA-MB-435): > 100 µM (inactive); GI50 (EKVX): > 100 µM (inactive)
